Experiments:
Bean (BN) [1] = assay: Post-emergence herbicide test; type: in vivo, Phaseolus vulgaris var. Black Valentine; conditions: Phaseolus vulgaris, post-emergence, 336 h, two weeks after treatment; for pest or weed control at 4483.4 g/ha: 4 lb/acre
Method in brief: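 Snapbean (Phaseolus vulgaris var. Black Valentine) was tested post-emergence. Four seeds were sown in 3' plastic pots of potting soil at a depth equal to the seed diameter, then sub-irrigated in greenhouse trays. Planting dates were staggered so plants were sprayed once primary leaves had expanded, with the growing point at the primary leaf nodes.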

Amaranth pigweed (PW) [2] = assay: Pre-emergence herbicide test; type: in vivo, Amaranthus retroflexus; conditions: 336 h, two weeks after treatment; for pest or weed control at 4483.4 g/ha: 4 lb/acre
Experimental: (§1) All crop and weed species were planted individually in 3' plastic pots containing potting soil. Four seeds each of corn, cotton, and snapbeans were seeded to a depth equal to the diameter of the seed. All other species were surface seeded and sprinkled with screened soil in an amount sufficient to cover the seed. Immediately after planting, all pots were watered by sub-irrigation in greenhouse trays. Pots for the pre-emergence phase were seeded one day before treatment.
(§2) Compounds were tested at rates of application equivalent to 8 lbs. of actual compound per acre in a spray volume of 38 gallons per acre. Spray hood constants required to deliver the above volume are as follows:
(§3) Formulations for spray applications were prepared in 50 ml volumes with the following three components:
(§4) Formulations for the 4 lbs/acre rate were prepared by adjusting the amount of active ingredient accordingly.
(§5) Spray applications were made in a hood containing a removable belt and fixed spray nozzle. For passage through the spray hood, one pot of each specie (pre-emergence phase) was placed on the rear half of the flat. Treatments were removed to the greenhouse after spraying. Watering during the observation period was done only by sub-irrigation.
(§6) Two weeks after treatment, pre- and post-emergence injury or control was visually rated, and the results were as shown in the following tables. Pre-emergence data are provided in TABLE III and post-emergence data are provided in TABLE IV, for compounds having the formula illustrated in TABLE I. Correspondingly, pre-emergence and post-emergence data, respectively, are set forth in TABLES V AND VI, for compounds having the formula illustrated in TABLE II.

Cotton (CT) [3] = assay: Post-emergence herbicide test; type: in vivo, Gossypium hirsutum var. DPL smooth leaf; conditions: Gossypium hirsutum, post-emergence, 336 h, two weeks after treatment; for pest or weed control at 4483.4 g/ha: 4 lb/acre
Method in brief: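 Cotton (Gossypium hirsutum var. DPL smooth leaf) was grown in 3' plastic pots of potting soil, four seeds per pot, planted at a depth equal to the seed diameter and watered by sub-irrigation. At the stage of expanded cotyledons with the first true leaf 1' long, plants were sprayed post-emergence in a hood with a fixed nozzle over a moving belt. Percent control was rated visually two weeks later.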

Johnson grass (JG) [4] = assay: Pre-emergence herbicide test; type: in vivo, Sorgum helepense; conditions: Sorghum halepense, 336 h, two weeks after treatment; for pest or weed control at 4483.4 g/ha: 4 lb/acre
Method in brief: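 Pots seeded one day before spraying; compound applied pre-emergence at 8 lbs/acre (or 4 lbs/acre) in 38 gallons/acre spray volume. Sub-irrigated in greenhouse; injury/control rated visually two weeks after treatment.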

Amaranth pigweed (PW) [5] = assay: Post-emergence herbicide test; type: in vivo, Amaranthus retroflexus; conditions: 336 h, 4 lb/acre, two weeks after treatment
Experimental: Amaranth pigweed (PW)--Amaranthus retroflexus
as §1
Planting dates for the post-emergence phase were varied so that all seedlings would reach the desired stage of development simultaneously. The proper stage of seedling development for treatment in the post-emergence phase is as follows:
Pigweed and turnips: 1 or 2 true leaves above visible cotyledons.
as §2, §3, §4, §5, §6

Bean (BN) [6] = assay: Pre-emergence herbicide test; type: in vivo, Phaseolus vulgaris var. Black Valentine; conditions: Phaseolus vulgaris, 336 h, two weeks after treatment; for pest or weed control at 4483.4 g/ha: 4 lb/acre
Method in brief: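 Black Valentine bean was seeded in potting soil one day before spraying. Compound was applied pre-emergence at 8 lbs/acre (also 4 lbs/acre) in 38 gallons per acre. Plants were sub-irrigated and injury or control was rated visually after two weeks.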

Corn (CN) [7] = assay: Pre-emergence herbicide test; type: in vivo; conditions: Zea mays, 336 h, two weeks after treatment; for pest or weed control at 4483.4 g/ha: 4 lb/acre
Method in brief: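 Four corn seeds per pot, sown at seed-diameter depth one day before spraying, got soil surface treatment at 8 lbs/acre (4 lbs/acre formulations also prepared) in 38 gallons/acre. Pots were greenhouse-held with sub-irrigation only. Injury or control was scored visually two weeks after treatment.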

Turnip (TP) [8] = assay: Pre-emergence herbicide test; type: in vivo, Brassica sp.; conditions: Brassica rapa, pre-emergence, 336 h, two weeks after treatment; for pest or weed control at 4483.4 g/ha: 4 lb/acre
Method in brief: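 Turnip (Brassica sp.) seeds were surface sown in 3' plastic pots of potting soil, covered with a thin layer of screened soil, and sub-irrigated in greenhouse trays. Pots were seeded one day ahead of treatment, sprayed pre-emergence under a hood with a fixed nozzle and moving belt, then kept in the greenhouse.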

Turnip (TP) [9] = assay: Post-emergence herbicide test; type: in vivo, Brassica sp.; conditions: Brassica rapa, post-emergence, 336 h, two weeks after treatment; for pest or weed control at 4483.4 g/ha: 4 lb/acre
Method in brief: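 A greenhouse post-emergence herbicide test on turnip. Seeds were sown on the surface of potting soil in 3' plastic pots, lightly covered with screened soil and watered from below. Planting was timed so seedlings had 1 or 2 true leaves above the cotyledons at spraying, done in a hood with a fixed nozzle. Control or injury was scored by eye after two weeks.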

Corn (CN) [10] = assay: Post-emergence herbicide test; type: in vivo; conditions: Zea mays, 336 h, 4 lb/acre, two weeks after treatment
Method in brief: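 Greenhouse seedlings grown in potting soil and sprayed post-emergence at 8 lbs compound/acre (formulations also made for 4 lbs/acre) in 38 gallons/acre spray volume. Watering by sub-irrigation only. Injury or control rated visually two weeks after treatment.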

Cotton (CT) [11] = assay: Pre-emergence herbicide test; type: in vivo, Gossypium hirsutum var. DPL smooth leaf; conditions: Gossypium hirsutum, 336 h, two weeks after treatment; for pest or weed control at 4483.4 g/ha: 4 lb/acre
Method in brief: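 Crop and weed species seeded one day before treatment, then sprayed pre-emergence at 8 lbs actual compound per acre (also 4 lbs/acre formulations) in 38 gallons per acre. Pots kept in greenhouse with sub-irrigation only; injury or control visually rated two weeks after treatment.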

Johnson grass (JG) [12] = assay: Post-emergence herbicide test; type: in vivo, Sorgum helepense; conditions: Sorghum halepense, 336 h, 4 lb/acre, two weeks after treatment
Method in brief: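 Greenhouse pot-grown seedlings sprayed post-emergence at 8 lbs compound per acre (some at 4 lbs/acre) in 38 gallons per acre spray volume. Sub-irrigated thereafter. Injury/control rated visually two weeks after treatment.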

Crabgrass (CG) [13] = assay: Pre-emergence herbicide test; type: in vivo, Digitaria sanquinalis; conditions: Digitaria sanguinalis, pre-emergence, 336 h, two weeks after treatment; for pest or weed control at 4483.4 g/ha: 4 lb/acre
Method in brief: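 Crabgrass (Digitaria sanquinalis) was surface seeded in 3' plastic pots of potting soil, covered with screened soil, and watered by sub-irrigation in greenhouse trays. Pots were seeded one day before spraying in a hood with a moving belt and fixed nozzle. Plants stayed in the greenhouse on sub-irrigation, and pre-emergence control was rated visually two weeks after treatment.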

Crabgrass (CG) [14] = assay: Post-emergence herbicide test; type: in vivo, Digitaria sanquinalis; conditions: Digitaria sanguinalis, post-emergence, 336 h, two weeks after treatment; for pest or weed control at 4483.4 g/ha: 4 lb/acre
Method in brief: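 Crabgrass (Digitaria sanquinalis) was surface seeded individually in 3' plastic pots of potting soil, covered with screened soil, and watered by sub-irrigation in greenhouse trays. Planting was staggered so seedlings reached the target stage together. Post-emergence sprays were applied in a hood with a removable belt and fixed nozzle, and control was visually rated two weeks after treatment.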

Barnyard grass (BG) = assay: Pre-emergence herbicide test; type: in vivo; conditions: Echinochloa crus-galli, 336 h, two weeks after treatment; for pest or weed control at 4483.4 g/ha: 4 lb/acre
Method in brief: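 Barnyard grass surface-seeded in potting soil and sprayed pre-emergence one day after seeding, at 8 or 4 lb compound/acre in 38 gal/acre spray volume. Pots kept in greenhouse with sub-irrigation only; injury or control rated visually two weeks after treatment.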

CCOC(=O)C(Sc1nnc(NC(=O)NC)s1)C(=O)OCC [Example 79]
30%: pest or weed control at 4483.4 g/ha (Johnson grass (JG) [12]) | pest or weed control at 4483.4 g/ha (Crabgrass (CG) [14])
60%: pest or weed control at 4483.4 g/ha (Bean (BN) [1])
40%: pest or weed control at 4483.4 g/ha (Amaranth pigweed (PW) [5]) | pest or weed control at 4483.4 g/ha (Turnip (TP) [9]) | pest or weed control at 4483.4 g/ha (Corn (CN) [10])
0%: pest or weed control at 4483.4 g/ha (Amaranth pigweed (PW) [2])
50%: pest or weed control at 4483.4 g/ha (Cotton (CT) [11])
90%: pest or weed control at 4483.4 g/ha (Cotton (CT) [3]) | pest or weed control at 4483.4 g/ha (Bean (BN) [6])
20%: pest or weed control at 4483.4 g/ha (Johnson grass (JG) [4]) | pest or weed control at 4483.4 g/ha (Corn (CN) [7]) | pest or weed control at 4483.4 g/ha (Turnip (TP) [8]) | pest or weed control at 4483.4 g/ha (Crabgrass (CG) [13])

CNC(=O)Nc1nnc(SCC#N)s1 [Example 88]
100%: pest or weed control at 4483.4 g/ha (Bean (BN) [6])
20%: pest or weed control at 4483.4 g/ha (Amaranth pigweed (PW) [5]) | pest or weed control at 4483.4 g/ha (Corn (CN) [10]) | pest or weed control at 4483.4 g/ha (Johnson grass (JG) [12]) | pest or weed control at 4483.4 g/ha (Crabgrass (CG) [14])
70%: pest or weed control at 4483.4 g/ha (Turnip (TP) [8])
10%: pest or weed control at 4483.4 g/ha (Amaranth pigweed (PW) [2]) | pest or weed control at 4483.4 g/ha (Johnson grass (JG) [4]) | pest or weed control at 4483.4 g/ha (Corn (CN) [7]) | pest or weed control at 4483.4 g/ha (Barnyard grass (BG)) | pest or weed control at 4483.4 g/ha (Crabgrass (CG) [13])
50%: pest or weed control at 4483.4 g/ha (Cotton (CT) [3]) | pest or weed control at 4483.4 g/ha (Cotton (CT) [11])
30%: pest or weed control at 4483.4 g/ha (Bean (BN) [1])
40%: pest or weed control at 4483.4 g/ha (Turnip (TP) [9])

CCCCS(=O)(=O)c1nnc(N(C)C(=O)NC)s1 [Example 92]
50%: pest or weed control at 4483.4 g/ha (Amaranth pigweed (PW) [2]) | pest or weed control at 1120.85 g/ha (Barnyard grass (BG); 1 lb/acre)
70%: pest or weed control at 560.425 g/ha (Bean (BN) [1]; 0.5 lb/acre) | pest or weed control at 2241.7 g/ha (Barnyard grass (BG); 2 lb/acre)
60%: pest or weed control at 4483.4 g/ha (Johnson grass (JG) [4]) | pest or weed control at 1120.85 g/ha (Turnip (TP) [8]; 1 lb/acre) | pest or weed control at 1120.85 g/ha (Crabgrass (CG) [13]; 1 lb/acre)
30%: pest or weed control at 2241.7 g/ha (Amaranth pigweed (PW) [2]; 2 lb/acre) | pest or weed control at 2241.7 g/ha (Johnson grass (JG) [4]; 2 lb/acre) | pest or weed control at 560.425 g/ha (Crabgrass (CG) [14]; 0.5 lb/acre) | pest or weed control at 1120.85 g/ha (Crabgrass (CG) [14]; 1 lb/acre)
10%: pest or weed control at 560.425 g/ha (Amaranth pigweed (PW) [2]; 0.5 lb/acre) | pest or weed control at 1120.85 g/ha (Amaranth pigweed (PW) [2]; 1 lb/acre) | pest or weed control at 560.425 g/ha (Johnson grass (JG) [4]; 0.5 lb/acre) | pest or weed control at 1120.85 g/ha (Johnson grass (JG) [4]; 1 lb/acre) | pest or weed control at 560.425 g/ha (Bean (BN) [6]; 0.5 lb/acre) | pest or weed control at 1120.85 g/ha (Bean (BN) [6]; 1 lb/acre) | pest or weed control at 2241.7 g/ha (Bean (BN) [6]; 2 lb/acre) | pest or weed control at 4483.4 g/ha (Bean (BN) [6]) | pest or weed control at 560.425 g/ha (Corn (CN) [7]; 0.5 lb/acre) | pest or weed control at 1120.85 g/ha (Corn (CN) [7]; 1 lb/acre) | pest or weed control at 2241.7 g/ha (Corn (CN) [7]; 2 lb/acre) | pest or weed control at 4483.4 g/ha (Corn (CN) [7]) | pest or weed control at 560.425 g/ha (Turnip (TP) [8]; 0.5 lb/acre) | pest or weed control at 560.425 g/ha (Barnyard grass (BG); 0.5 lb/acre) | pest or weed control at 560.425 g/ha (Cotton (CT) [11]; 0.5 lb/acre) | pest or weed control at 1120.85 g/ha (Cotton (CT) [11]; 1 lb/acre) | pest or weed control at 2241.7 g/ha (Cotton (CT) [11]; 2 lb/acre) | pest or weed control at 4483.4 g/ha (Cotton (CT) [11])
40%: pest or weed control at 560.425 g/ha (Crabgrass (CG) [13]; 0.5 lb/acre)
100%: pest or weed control at 4483.4 g/ha (Bean (BN) [1]) | pest or weed control at 560.425 g/ha (Cotton (CT) [3]; 0.5 lb/acre) | pest or weed control at 1120.85 g/ha (Cotton (CT) [3]; 1 lb/acre) | pest or weed control at 2241.7 g/ha (Cotton (CT) [3]; 2 lb/acre) | pest or weed control at 4483.4 g/ha (Cotton (CT) [3]) | pest or weed control at 560.425 g/ha (Turnip (TP) [9]; 0.5 lb/acre) | pest or weed control at 1120.85 g/ha (Turnip (TP) [9]; 1 lb/acre) | pest or weed control at 2241.7 g/ha (Turnip (TP) [9]; 2 lb/acre) | pest or weed control at 4483.4 g/ha (Turnip (TP) [9]) | pest or weed control at 2241.7 g/ha (Crabgrass (CG) [13]; 2 lb/acre) | pest or weed control at 4483.4 g/ha (Crabgrass (CG) [13])
90%: pest or weed control at 2241.7 g/ha (Bean (BN) [1]; 2 lb/acre) | pest or weed control at 2241.7 g/ha (Turnip (TP) [8]; 2 lb/acre) | pest or weed control at 4483.4 g/ha (Turnip (TP) [8]) | pest or weed control at 4483.4 g/ha (Barnyard grass (BG)) | pest or weed control (Crabgrass (CG) [14]; 2 lb/acre) | pest or weed control at 4483.4 g/ha (Crabgrass (CG) [14])
80%: pest or weed control at 1120.85 g/ha (Bean (BN) [1]; 1 lb/acre)
